Measured values published in patent US7829589B2, “Sulfonamide compounds and uses thereof” (Elixir Pharmaceuticals, Inc., priority 2005, dated 2010).

Molecular target: GHS-R (Homo sapiens, UniProt Q92847)
Assay: GHS-R antagonist activity (Ki) in a cell based assay
Method: Cell-Based Activity Assays. For example, the ability of the compound to modulate accumulation of a second messenger signaling component downstream of GHS-R can be evaluated. For example, inositol phosphates (IP), as a result of Gq signaling in a mammalian cell, e.g., a Cos-7 cells. Other tissue culture cells, Xenopus oocytes, and primary cells can also be used.
Phosphatidylinositol turnover assay. One day after transfection COS-7 cells are incubated for 24 hours with 5 μCi of [^3H]-myo-inositol in 1 ml medium supplemented with 10% fetal calf serum, 2 mM glutamine and 0.01 mg/ml gentamicin per well. Cells are then washed twice in buffer, 20 mM HEPES, pH 7.4, supplemented with 140 mM NaCl, 5 mM KCl, 1 mM MgSO4, 1 mM CaCl2, 10 mM glucose, 0.05% (w/v) bovine serum; and incubated in 0.5 ml buffer supplemented with 10 mM LiCl at 37° C. for 30 min. For some assays, it is also useful to incubate the cells with adenosine deaminase ADA (200 U/mg, Boehringer Mannheim, Germany) for 30 min in a concentration of 1 U/ml.
After incubation with the compound of interest for 45 min at 37° C., cells are extracted with 10% ice-cold perchloric acid and placed on ice for 30 min. The resulting supernatants are neutralized with KOH in HEPES buffer, and [^3H]-inositol phosphate is purified on Bio-Rad AG 1-X8 anion exchange resin as described. Assays can be run in duplicate, triplicate, etc. […]

Chain of GHS-R (Q92847 whole entry, species assumed): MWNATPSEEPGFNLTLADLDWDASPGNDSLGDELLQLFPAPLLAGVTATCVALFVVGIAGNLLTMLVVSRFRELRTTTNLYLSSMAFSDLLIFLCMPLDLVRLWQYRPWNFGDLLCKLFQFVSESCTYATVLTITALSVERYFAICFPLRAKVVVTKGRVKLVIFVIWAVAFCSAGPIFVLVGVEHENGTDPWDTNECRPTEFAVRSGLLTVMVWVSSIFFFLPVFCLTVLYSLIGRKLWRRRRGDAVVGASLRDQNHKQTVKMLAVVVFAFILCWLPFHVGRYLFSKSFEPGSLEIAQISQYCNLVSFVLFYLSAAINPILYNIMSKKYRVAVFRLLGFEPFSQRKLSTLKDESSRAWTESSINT

Row | Ki | SMILES
1 | 100 to 500 nM | CCN(CC)CCCS(=O)(=O)N[C@H](CCc1ccccc1)c1nc(Cc2ccc(F)c(F)c2)n[nH]1 [Compound 56, 3-Diethylamino-propane-1-sulfonic acid {(R)-1-[5-(3,4-difluoro-benzyl)-2H-[1,2,4]triazol-3-yl]-3-phenyl-propyl}-amide]
2 | < 100 nM | CCN(CC)CCCS(=O)(=O)N[C@H](CCc1ccccc1)c1nc(-c2ccc(Cl)cc2Cl)n[nH]1 [Compound 58, 3-Diethylamino-propane-1-sulfonic acid {(R)-1-[5-(2,4-dichloro-phenyl)-2H-[1,2,4]triazol-3-yl]-3-phenyl-propyl}-amide]
3 | < 100 nM | CCN(CC)CCCS(=O)(=O)N[C@H](CCc1ccccc1)c1nc(-c2ccc(Br)cc2)no1 [Compound 59, 3-Diethylamino-propane-1-sulfonic acid {(R)-1-[3-(4-bromo-phenyl)-[1,2,4]oxadiazol-5-yl]-3-phenyl-propyl}-amide]
4 | 500 to 1000 nM | CCN(CC)CCCS(=O)(=O)N[C@H](CCc1ccccc1)c1nc(CCOC)no1 [Compound 60, 3-Diethylamino-propane-1-sulfonic acid {(R)-1-[3-(2-methoxy-ethyl)-[1,2,4]oxadiazol-5-yl]-3-phenyl-propyl}-amide]
5 | < 100 nM | CCN(CC)CCCS(=O)(=O)N[C@H](CCc1ccccc1)c1nc(-c2cccc(C)c2)n[nH]1 [Compound 61, 3-Diethylamino-propane-1-sulfonic acid [(R)-3-phenyl-1-(5-m-tolyl-2H-[1,2,4]triazol-3-yl)-propyl]-amide]
6 | < 100 nM | CCN(CC)CCCS(=O)(=O)N[C@H](CCc1ccccc1)c1nc(Cc2cccc(F)c2)no1 [Compound 62, 3-Diethylamino-propane-1-sulfonic acid {(R)-1-[3-(3-fluoro-benzyl)-[1,2,4]oxadiazol-5-yl]-3-phenyl-propyl}-amide]
7 | 100 to 500 nM | CCN(CC)CCCS(=O)(=O)N[C@H](CCc1ccccc1)c1nc(-c2cc(F)ccc2F)n[nH]1 [Compound 63, 3-Diethylamino-propane-1-sulfonic acid {(R)-1-[5-(2,5-difluoro-phenyl)-2H-[1,2,4]triazol-3-yl]-3-phenyl-propyl}-amide]
8 | < 100 nM | CCN(CC)CCCS(=O)(=O)N[C@H](CCc1ccccc1)c1nc(-c2cccc(Br)c2)no1 [Compound 64, 3-Diethylamino-propane-1-sulfonic acid {(R)-1-[3-(3-bromo-phenyl)-[1,2,4]oxadiazol-5-yl]-3-phenyl-propyl}-amide]
9 | < 100 nM | CCN(CC)CCCS(=O)(=O)N[C@H](CCc1ccccc1)c1nc(-c2ccc([N+](=O)[O-])cc2)n[nH]1 [Compound 65, 3-Diethylamino-propane-1-sulfonic acid {(R)-1-[5-(4-nitro-phenyl)-2H-[1,2,4]triazol-3-yl]-3-phenyl-propyl}-amide]
10 | < 100 nM | CCN(CC)CCCS(=O)(=O)N[C@H](CCc1ccccc1)c1nc(-c2ccc(F)cc2)no1 [Compound 66, 3-Diethylamino-propane-1-sulfonic acid {(R)-1-[3-(4-fluoro-phenyl)-[1,2,4]oxadiazol-5-yl]-3-phenyl-propyl}-amide]
11 | 100 to 500 nM | CCN(CC)CCCS(=O)(=O)N[C@H](CCc1ccccc1)c1nc(-c2ccc(Br)cc2C)no1 [Compound 67, 3-Diethylamino-propane-1-sulfonic acid {(R)-1-[3-(4-bromo-2-methyl-phenyl)-[1,2,4]oxadiazol-5-yl]-3-phenyl-propyl}-amide]
12 | < 100 nM | CCN(CC)CCCS(=O)(=O)N[C@H](CCc1ccccc1)c1nc(Cc2ccccc2C)no1 [Compound 68, 3-Diethylamino-propane-1-sulfonic acid {(R)-1-[3-(2-methyl-benzyl)-[1,2,4]oxadiazol-5-yl]-3-phenyl-propyl}-amide]
13 | < 100 nM | CCN(CC)CCCS(=O)(=O)N[C@H](CCc1ccccc1)c1nc(-c2ccc(OC)cc2)no1 [Compound 69, 3-Diethylamino-propane-1-sulfonic acid {(R)-1-[3-(4-methoxy-phenyl)-[1,2,4]oxadiazol-5-yl]-3-phenyl-propyl}-amide]
14 | < 100 nM | CCN(CC)CCCS(=O)(=O)N[C@H](CCc1ccccc1)c1nc(-c2cccc(Cl)c2)n[nH]1 [Compound 70, 3-Diethylamino-propane-1-sulfonic acid {(R)-1-[5-(3-chloro-phenyl)-2H-[1,2,4]triazol-3-yl]-3-phenyl-propyl}-amide]
15 | < 100 nM | CCN(CC)CCCS(=O)(=O)N[C@H](CCc1ccccc1)c1nc(-c2ccc(C)cc2)no1 [Compound 71, 3-Diethylamino-propane-1-sulfonic acid [(R)-3-phenyl-1-(3-p-tolyl-[1,2,4]oxadiazol-5-yl)-propyl]-amide]
16 | < 100 nM | CCN(CC)CCCS(=O)(=O)N[C@H](CCc1ccccc1)c1nc(Cc2ccccc2F)no1 [Compound 72, 3-Diethylamino-propane-1-sulfonic acid {(R)-1-[3-(2-fluoro-benzyl)-[1,2,4]oxadiazol-5-yl]-3-phenyl-propyl}-amide]
17 | < 100 nM | CCN(CC)CCCS(=O)(=O)N[C@H](CCc1ccccc1)c1nc(Cc2c(Cl)cccc2Cl)no1 [Compound 73, 3-Diethylamino-propane-1-sulfonic acid {(R)-1-[3-(2,6-dichloro-benzyl)-[1,2,4]oxadiazol-5-yl]-3-phenyl-propyl}-amide]
18 | < 100 nM | CCN(CC)CCCS(=O)(=O)N[C@H](CCc1ccccc1)c1nc(Cc2cccc(Br)c2)no1 [Compound 74, 3-Diethylamino-propane-1-sulfonic acid {(R)-1-[3-(3-bromo-benzyl)-[1,2,4]oxadiazol-5-yl]-3-phenyl-propyl}-amide]
19 | < 100 nM | CCN(CC)CCCS(=O)(=O)N[C@H](CCc1ccccc1)c1nc(Cc2ccccc2Br)no1 [Compound 75, 3-Diethylamino-propane-1-sulfonic acid {(R)-1-[3-(2-bromo-benzyl)-[1,2,4]oxadiazol-5-yl]-3-phenyl-propyl}-amide]
20 | ≥ 1000 nM | CCN(CC)CCS(=O)(=O)N[C@H](CCc1ccccc1)c1nc(-c2cccc(Br)c2)no1 [Compound 76, 2-Diethylamino-ethanesulfonic acid {(R)-1-[3-(3-bromo-phenyl)-[1,2,4]oxadiazol-5-yl]-3-phenyl-propyl}-amide]
21 | ≥ 1000 nM | CCN(CC)CCS(=O)(=O)N[C@H](CCc1ccccc1)c1nc(-c2cnccc2C)no1 [Compound 77, 2-Diethylamino-ethanesulfonic acid {(R)-1-[3-(4-methyl-pyridin-3-yl)-[1,2,4]oxadiazol-5-yl]-3-phenyl-propyl}-amide]
22 | 500 to 1000 nM | CCN(CC)CCS(=O)(=O)N[C@H](CCc1ccccc1)c1nc(CCOC)no1 [Compound 78, 2-Diethylamino-ethanesulfonic acid {(R)-1-[3-(2-methoxy-ethyl)-[1,2,4]oxadiazol-5-yl]-3-phenyl-propyl}-amide]
23 | 100 to 500 nM | CCN(CC)CCS(=O)(=O)N[C@H](CCc1ccccc1)c1nc(-c2ccc(Br)cc2)no1 [Compound 79, 2-Diethylamino-ethanesulfonic acid {(R)-1-[3-(4-bromo-phenyl)-[1,2,4]oxadiazol-5-yl]-3-phenyl-propyl}-amide]
24 | 100 to 500 nM | CCN(CC)CCCS(=O)(=O)N[C@H](CCc1ccccc1)c1nc(-c2ccc(OC)c(OC)c2)n[nH]1 [Compound 80, 3-Diethylamino-propane-1-sulfonic acid {(R)-1-[5-(3,4-dimethoxy-phenyl)-2H-[1,2,4]triazol-3-yl]-3-phenyl-propyl}-amide]
25 | 100 to 500 nM | CCN(CC)CCS(=O)(=O)N[C@H](CCc1ccccc1)c1nc(Cc2ccc3c(c2)OCO3)no1 [Compound 81, 2-Diethylamino-ethanesulfonic acid [(R)-1-(3-benzo[1,3]dioxol-5-ylmethyl-[1,2,4]oxadiazol-5-yl)-3-phenyl-propyl]-amide]
26 | < 100 nM | CCN(CC)CCS(=O)(=O)N[C@H](CCc1ccccc1)c1nc(Cc2cccc(F)c2)no1 [Compound 82, 2-Diethylamino-ethanesulfonic acid {(R)-1-[3-(3-fluoro-benzyl)-[1,2,4]oxadiazol-5-yl]-3-phenyl-propyl}-amide]
27 | 100 to 500 nM | CCN(CC)CCCS(=O)(=O)N[C@H](CCc1ccccc1)c1nc(-c2cnccc2C)no1 [Compound 83, 3-Diethylamino-propane-1-sulfonic acid {(R)-1-[3-(4-methyl-pyridin-3-yl)-[1,2,4]oxadiazol-5-yl]-3-phenyl-propyl}-amide]
28 | 100 to 500 nM | CCN(CC)CCS(=O)(=O)N[C@H](CCc1ccccc1)c1nc(Cc2ccc(Br)cc2)no1 [Compound 84, 2-Diethylamino-ethanesulfonic acid {(R)-1-[3-(4-bromo-benzyl)-[1,2,4]oxadiazol-5-yl]-3-phenyl-propyl}-amide]
29 | ≥ 1000 nM | CCN(CC)CCS(=O)(=O)N[C@H](CCc1ccccc1)c1nc(-c2ccc(Br)cc2C)no1 [Compound 85, 2-Diethylamino-ethanesulfonic acid {(R)-1-[3-(4-bromo-2-methyl-phenyl)-[1,2,4]oxadiazol-5-yl]-3-phenyl-propyl}-amide]
30 | 100 to 500 nM | CCN(CC)CCS(=O)(=O)N[C@H](CCc1ccccc1)c1nc(-c2ccc(C)cc2)no1 [Compound 86, 2-Diethylamino-ethanesulfonic acid [(R)-3-phenyl-1-(3-p-tolyl-[1,2,4]oxadiazol-5-yl)-propyl]-amide]
